Results: publication PMC8776730 (Nature Communications, 2022)

Assays:
MIA PaCa-2 cells = test: Transwell migration assay; type: cell-based; details: for migrated cells (Fig S20): MIA PaCa-2 cells
Protocol: Fig. 5 The BIVA effect with enhanced targeting to pancreatic tumor cell for boundaries imaging. a Illustration of BIVA effect: active targeting and assembly/aggregate induced retention (AIR) effect. b Chemical structure of FITC labeling. c 2D and 3D confocal images of M2 with active targeting property and M1 with BIVA effect on MIA PaCa-2 cells after incubation for 1 h. d The distribution of M1 on MIA PaCa-2 cell. e ThT staining of the lysed cell membrane of MIA PaCa-2. f, Illustration of migration inhibition after treated by BIVA probe. g The image of the migrated cells after treatment of PBS (blank), M2, M4, and M1. Scale bar: 100 μm. h The pie diagram of quantitative statistical calculation of the migrated cells (blue) in different groups. The blank control was set as 100% migrated cells.
In order to further understand the contribution of the active targeting and AIR effect during locating of the cells, the cell transwell experiment was used to quantitively evaluate interference of the cell migration based on M1, M2, and M4 (Fig. 5f). As expected, untreated cells were easy to migrate to the lower chamber, while the cells treated with active targeting molecule M2 and assembled molecule M4, the migration of cell were reduced. Under the same molar concentration, the M1 treatment group had the most inference on cell migration (Fig. 5g). […] Based on those results, we speculate M1 can be more enriched in the tumor site and form fibers through assembly to inhibit tumor cell migration compared to M2 and M4 which have no ability to target and adhere on the cell membrane.
Transwell migration assay occurred in chemotaxis chambers containing 24 wells. […] Bottom chambers contained DMEM medium containing 10% FBS. After 24 h of treatment with M1, M2, and M4 (150 μM), we fixed cells using 4% paraformaldehyde and stained with 0.25% crystal violet solution. The stained cells were counted using a microscope.
Supplementary Fig. 20∣ The quantitative results of the migrated cells after treatment of PBS (blank), M2, […] and
M1 (Fig 5g). The mean of results of fiveparallel experiments is shown and data were expressed as mean ± SD (n=5).
pM1 = 5.85E-06, pM2 = 5.94E-05, pM4 = 3.16 E-04, Statisticalanalysis: one-way ANOVA followed by post hoc Tukey’s
(1 picture or pasted object on this page, not shown here)

[1] = Secondary structure proportions from CD spectra; type: physicochemical; details: calculated by Reed's Reference based on CD spectra; DI water
Source text: To further evaluate the assembled structures, the corresponding circular dichroism (CD), Fourier transform infrared (FTIR) spectroscopy, and wide-angle X-ray scattering (WAXS) spectroscopy were applied. […] The FITR spectra of M1 and M3 in Fig. 3b observed the intermolecular interactions. The peaks at 1629 cm^−1, 1675 cm^−1, and 1698 cm^–1 of M3 indicated anti-parallel β-sheet structure (represent by green arrow heads), peaks at 1648 cm^−1 and 1663 cm^−1 indicated parallel beta sheet structure (represent by blue arrow heads), the existence of 1654 cm^−1 indicate α-Helix structure in M1 which verified the results deduced by CD in Fig. 3a[29],[30]. […] As a homologous sequence with amyloid β-protein (Aβ), the self-assembly motif with peptide sequence of KLVFFGCG had similar aggregation kinetics to (Aβ)42 peptide, which occurred via dynamic growth from oligomers to amyloid fibrils. The aggregation started from the freshly isolated monomers of R-M1, and precipitates were separated in 1 min and 1 h, respectively. […] After analyzed the CD spectra of M1, M3, and R-M1 (Fig. 3e), it can be clearly seen that the main secondary conformation of M1 was Random, the M3 was hybrid of Helix and Beta, and the R-M1 was Beta (Supplementary Table 1). All the results confirmed the conclusion from FTIR spectra. […] The dynamic growth procedure was like the 8-anilino-1-naphthalenesulfonic acid (ANS) stained curve (Supplementary Fig. 12). As known, ANS was sensitive to hydrophobic interaction. When R-M1 were in the initial oligomer, the fluorescence intensity of ANS increased due to the enhanced hydrophobicity. When the molecules were elongated and stacked in higher ordered nanofibrils, the blue shift of ANS in the β-sheet structures reduced the fluorescence. The molecular packing mode of well-ordered fibrils of R-M1 in Fig. 3g observed a weak reflection at 4.9 Å as laminates space and a strong broad reflection at 10.3 Å as sheet space, which was illustrated in the inserted figure. The fibril morphology was characterized by transmission electron microscopy (TEM) imaging (Fig. 3f). The statistical calculation of the fiber diameter in TEM images was 5.0 ± 0.4 nm (Supplementary Fig. 13), which was corresponded to the theoretical calculated two molecules length of R-M1. We assumed that the nanofibers were assembled by twisted R-M1 molecules centered on self-assembly motif.
The secondary structures of M1, M3 and R-M1 were verified by CD spectroscopy (JASCO Corporation, JC-1500) at room temperature with a cell path length of 1 cm. M1, […] and R-M1 were diluted to 100 μM with deionized water at 25 °C and allowed to stand for 12 h for complete assembly. Detail parameter setting were CD scale:200 mdeg/1.0Dod, measure range: 260~190 nm, scanning speed: 500 nm/min, bandwidth: 1.00 nm, and data pitch: 0.5 nm. All spectra were the average of three measurements.
Supplementary Table 1∣ Secondary structure proportions ofM1, M3 and R-M1 calculated by Reed’s Reference based on […]

Substance	emigrate (migrated cells relative to blank) (MIA PaCa-2 cells; MIA PaCa-2, 150 μM, 24 h, blank control = 1)	migrated cells (Fig S20) (MIA PaCa-2 cells; averge of groups 1-3)	migrated cells (Fig S20) (MIA PaCa-2 cells; group 1)	migrated cells (Fig S20) (MIA PaCa-2 cells; group 2)	migrated cells (Fig S20) (MIA PaCa-2 cells; group 3)	Secondary structure proportion: Beta [1]	Secondary structure proportion: Helix [1]	Secondary structure proportion: Random [1]	Secondary structure proportion: Turn [1]
mPEG-GPAKLVFFGC(IR783)GRGD [M1]	0.3109	285.333	285	302	269	32.2%	0%	66.1%	1.7%
mPEG-GPAKLVFFGCGRGD [M3, the non-labeling molecule of M1 (no IR783)]		484.667	483	456	515	38.7%	45%	16.3%	0%
